The text below walks through data of patent US10456405B2, “Nitric oxide-releasing prodrug molecule of substituted quinazolines” (ZHEJIANG HUAHAI PHARMACEUTICAL CO., LTD, priority 2015, dated 2019).

For one experiment, the system named is ApoA-I mRNA. The experiment in a line: Regulation of ApoA-I mRNA in HepG2 cells (real-time PCR). The format is cell-based. Details: key: Active: When 100 μM of the tested compound allowed ApoA-I mRNA in HepG2 cells to increase more than 15%, then the test compound was known as an ApoA active compound. The note with it: 100 μM, 48 h, relative to DMSO control. (In qPCR the cycle at which signal appears reflects the starting amount.)

The test system of the next experiment is apoE−/− mice. The experiment is described as follows: apoE−/− mouse atherosclerosis model, high-fat diet 10 weeks. The class given is in vivo. The note with it: for Aorta eNOS / ApoA1 / Heart eNOS / Serum NO / Serum eNOS: blank administration group = 100, 150 mg/kg twice a day, 10 weeks; for HDL-C / LDL-C / TC: serum, high-fat diet 10 weeks, intragastric 150 mg/kg twice a day. The source says: Experimental method: 36 eight-week-old male apoE-/- mice were selected and randomly divided into a blank administration group, an […] administration group, an […] administration group, an […] administration group, an […] administration group, and an […] administration group, 6 mice per group. The mice in each group were fed with high-fat diet for 10 weeks. At the beginning of the high-fat feeding, the mice in each group were administrated. Each tested compound was intragastric administered at the dose of 150 mg/kg twice a day. The blank administration group was given corresponding dose of saline. […] After the blood was taken, the serum, heart, and aorta were isolated. The levels of total cholesterol (TC), high density lipoprotein cholesterol (HDL-C), and low density lipoprotein cholesterol (LDL-C) in the serum of the mice in each group were measured by automatic biochemical analyzer. The ApoA1 expression level was detected with an ApoA1 kit. The content of NO in the serum of the mice was determined with a total NO test kit (Beyotime). The NOS activities of the heart, aorta, and serum were determined with an NOS test kit (Beyotime). The content of eNOS was calculated by the difference between the measured values determined before and after adding eNOS inhibitor L-NAME (Beyotime).

The subject of a further experiment is C57BL/6 mice. The experiment is described as follows: Serum NO level in C57 mice after oral gavage. The class given is in vivo. The note with it: oral gavage 150 mg/kg (positive drug 5 mg/kg), FIG. 1. The source says:
Experimental method: 60 eight-week-old C57BL/6 mice (level: SPF; gender: male; source: Shanghai SLAC Laboratory Animal Co., Ltd.) were selected. […] were selected as the blank control. 12 mice were used as the positive drug control (isosorbide mononitrate). 12 mice were used as […] administration group. The other 32 mice were randomly divided into 4 groups, 8 mice per group, which are […] administration group, […] administration group, […] administration group, and […] administration group, respectively. The tested compounds of the positive drug control group and each administration group were dissolved in DMSO and then PEG400 was added thereto. The mixture was shaken and mixed thoroughly. At last, 10% of HP-β-CD was added. The mixture was shaken and mixed thoroughly. The ratio of each solvent was DMSO: PEG400:10% of HP-β-CD=5:67.5:27.5. The administration groups were administered by oral gavage at the dose of 150 mg/kg. The positive drug control group was administered at the dose of 5 mg/kg. The mice in each group were sacrificed by inhaling excess CO2 at 10 min, 30 min, 60 min, 120 min, 180 min, and 240 min after administration. The blood was collected into a 1.5 mL centrifuge tube, standing at room temperature for more than 30 min, and then centrifuged (3000 rpm, 10 min). The supernatant serum was aspirated, and stored at -80° C. for testing. After the blood was collected, the heart was cut with the thoracic aorta. Three parts of the heart were weighed and placed into cryovials, rapidly frozen in liquid nitrogen, and cryopreserved at -80° C. for testing. The aorta and aortic arch were weighed, rapidly frozen in liquid nitrogen, and cryopreserved at -80° C. for testing. The content of NO in the serum of C57BL/6 mice was determined by using the total NO test kit (Beyotime).

A further experiment relates to db/db mice. The experiment is described as follows: Serum NO and heart eNOS in db/db mice after oral gavage. The format is in vivo. The note with it: blank = 100, oral gavage 150 mg/kg (isosorbide mononitrate 5 mg/kg), 1 h after administration (H101: 2 h). The source says:
Experimental method: 25 eight-week-old db/db mice (strain: BKS.Cg−+Leprdb/+leprdb/JclSlac; grade: SPF; gender: male; source: Shanghai SLAC Laboratory Animal Co., Ltd.) were selected. 3 of them were selected as the blank administration control. 2 mice were used as the positive drug control (isosorbide mononitrate). The remaining 20 mice were randomly divided into 5 groups, 4 mice per group, which are H101 administration group, H111 administration group, H116 administration group, H119 administration group, and H130 administration group. The tested compounds of the positive drug control group and each administration group were dissolved in DMSO. Then PEG400 was added. The mixture was shaken and mixed thoroughly. At last, 10% of HP-β-CD was added. The mixture was shaken and mixed thoroughly. The ratio of each solvent was DMSO: PEG400:10% of HP-β-CD=5:67.5:27.5. The administration group was administered by oral gavage at the dose of 150 mg/kg. The positive drug control group was administered at the dose of 5 mg/kg. The mice in the H101 administration group were sacrificed at 2 h after the administration. The mice in the remaining administration groups were sacrificed at 1 h after the administration. The blood was collected respectively into 1.5 mL centrifuge tube, standing at room temperature for more than 30 min, and then centrifuged (3000 rpm, 10 min). The supernatant serum was aspirated, and stored at −80° C. for testing. After the blood was collected, the heart was cut with the thoracic aorta. Three parts of the heart were weighed and placed into cryovials, rapidly frozen in liquid nitrogen, and cryopreserved at −80° C. for testing. The aorta and aortic arch were weighed, rapidly frozen in liquid nitrogen, and cryopreserved at −80° C. for testing. The content of NO in the serum of the […] mice was determined by a total NO test kit (Beyotime). The content of NOS in the heart of the mice was determined with an NOS test kit (Beyotime). The content of eNOS was calculated by the difference between the measured values before and after adding the eNOS inhibitor L-NAME (Beyotime).

Take “2-[4-(5,7-dimethoxy-4-oxo-3,4-dihydro-quinazolin-2-yl)-2,6-dimethyl-phenoxy]-ethyl 4-(2-oxo-3-nitroxymethyl-1,2,5-oxadiazol-3-methyl)oxy-4-oxo-butyrate [Compound H111]”: in the experiment with ApoA-I mRNA, the “Upregulation of Apoa-I Mrna Level” value is “Active”. Moreover, in the experiment with apoE−/− mice, the “Aorta eNOS” value stood at 127%, the ApoA1 is 118%, the “Heart eNOS” value was determined as 145% and the “Serum NO” value turned out to be 134%. Besides, in the experiment with apoE−/− mice, the “Serum eNOS” value stood at 132%, the HDL-C stood at 83 ± 13 mg/dL, the LDL-C is reported as 296 ± 29 mg/dL and the TC is 1021 ± 57 mg/dL. For the same compound, the “time after administration at which serum NO level rose to its maximum, then decreased” value with C57BL/6 mice is listed as 1 h. In the experiment on db/db mice, the “Heart eNOS” value is reported as 165% and the “Serum NO” value was determined as 154%.

`COc1cc(OC)c2c(=O)[nH]c(-c3cc(C)c(OCCO[N+](=O)[O-])c(C)c3)nc2c1` [Compound H101, 2-(4-(2-nitrooxy-ethoxy)-3,5-dimethylphenyl)-5,7-dimethoxyquinazolin-4(3H)-one]: the “Upregulation of Apoa-I Mrna Level” value in the experiment on ApoA-I mRNA is reported as “Active”. In the experiment with apoE−/− mice, the “Aorta eNOS” value was 132%, the ApoA1 was 126%, the “Heart eNOS” value came to 135% and the “Serum NO” value was determined as 126%. Besides, in the experiment on apoE−/− mice, the “Serum eNOS” value came out at 128%, the HDL-C was 78 ± 9 mg/dL, the LDL-C is listed as 273 ± 38 mg/dL and the TC was 985 ± 68 mg/dL. For the same compound, in the experiment on C57BL/6 mice, the “time after administration at which serum NO level rose to its maximum, then decreased” value turned out to be 2 h. Further, in the experiment on db/db mice, the “Heart eNOS” value is given as 162% and the “Serum NO” value is on record as 142%.

Regarding `COc1cc(OC)c2c(=O)[nH]c(-c3cc(C)c(OCCOC(=O)OC4COC5C(O[N+](=O)[O-])COC45)c(C)c3)nc2c1` (stereo not drawn) [Compound H119, 2-[4-(5,7-dimethoxy-4-oxo-3,4-dihydro-quinazolin-2-yl)-2,6-dimethyl-phenoxy]-ethyl (6-nitroxy-hexahydrofuro[3,2-b]furan-3-yl)-carbonate], the “Upregulation of Apoa-I Mrna Level” value in the experiment with ApoA-I mRNA is recorded as “Active”. In addition, in the experiment with apoE−/− mice, the “Aorta eNOS” value is recorded as 124%, the ApoA1 is 114%, the “Heart eNOS” value was 138% and the “Serum NO” value amounted to 127%. Besides, in the experiment with apoE−/− mice, the “Serum eNOS” value is 126%, the HDL-C is recorded as 88 ± 14 mg/dL, the LDL-C amounted to 308 ± 35 mg/dL and the TC is on record as 994 ± 85 mg/dL. Also, the “time after administration at which serum NO level rose to its maximum, then decreased” value with C57BL/6 mice is on record as 1 h. For the same compound, in the experiment with db/db mice, the “Heart eNOS” value was 156% and the “Serum NO” value is 152%.
